Laboratory results: patent publication US8138218B2, “Growth hormone secretagogues” (Ipsen Pharma S.A.S., priority 2005, dated 2012)

Biological target: T1, human growth hormone secretagogue receptor-1a (hGHS-R1a) (Homo sapiens, UniProt Q92847)
T1 construct: The full length hGHS-R1a was subcloned into the mammalian expression vector pcDNA 3.1; expressed in transfected cells
Experiment: hGHS-R1a binding assay, (125I)ghrelin displacement on CHO-K1 cell membranes
Settings: membranes of CHO-K1 cells expressing hGHS-R1a; 0.05 nM (125I)ghrelin; sixty minute incubation at 4° C.
Excerpt: A. Preparation of CHO-K1 cells expressing the human recombinant GHS receptor-1a
The cDNA for human growth hormone secretagogue receptor-1a (hGHS-R1a) was cloned by Polymerase Chain Reaction (PCR) using human brain RNA as a template (Clontech®, Palo Alto, Calif.), gene specific primers flanking the full-length coding sequence of hGHS-R1a, (S: 5′-[…]-3′ and AS: 5′-[…]-3′), and an Advantage 2 PCR Kit® (Clontech®). The PCR product was cloned into the pCR2.1 vector using an Original TA Cloning Kit® (Invitrogen®, Carlsbad, Calif.). The full length hGHS-R1a was subcloned into the mammalian expression vector pcDNA 3.1 (Invitrogen®, Carlsbad, Calif.). The plasmid was transfected into the Chinese hamster ovary cell line, CHO-K1 (American Type Culture Collection®, Rockville, Md.), by calcium phosphate method (Wigler, M et al., Cell, (1977), 11:223). Single cell clones stably expressing the hGHS-R1a were obtained by selecting transfected cells grown in cloning rings in RPMI 1640 media supplemented with 10% fetal bovine serum and 1 mM sodium pyruvate containing 0.8 mg/ml G418 (Gibco®, Grand Island, N.Y.).
B. hGHS-R1a Binding Assay:
Membranes for radioligand binding studies can be and were prepared by homogenization of the foregoing CHO-K1 cells expressing the hGHS-R1a in 20 ml of ice-cold 50 mM Tris-HCl with a Brinkman Polytron® (Westbury, N.Y.) (setting 6, 15 sec). The homogenates were washed twice by centrifugation (39,000 g/10 min) and the final pellets were re-suspended in 50 mM Tris-HCl containing 2.5 mM MgCl2 and 0.1% BSA. For the assay, aliquots (0.4 ml) were incubated with 0.05 nM (^125I)ghrelin (˜2000 Ci/mmol)(Perkin Elmer Life Sciences®, Boston, Mass.) with and without 0.05 ml of unlabeled competing test compounds of the invention. After a sixty minute incubation at 4° C., the bound (^125I)ghrelin was separated from the free by rapid filtration through GF/C filters (Brandel®, Gaithersburg, Md.) which were previously soaked in 0.5% polyethyleneimine/0.1% BSA. The filters were then washed three times with 5-ml aliquots of ice-cold 50 mM Tris-HCl and 0.1% bovine serum albumin and the bound radioactivity trapped on the filters was counted by gamma spectrometry (Wallac LKB®, Gaithersburg, Md.). Specific binding was defined as the total (^125I)ghrelin bound minus that bound in the presence of 1000 nM ghrelin

T1 sequence (Q92847 whole entry): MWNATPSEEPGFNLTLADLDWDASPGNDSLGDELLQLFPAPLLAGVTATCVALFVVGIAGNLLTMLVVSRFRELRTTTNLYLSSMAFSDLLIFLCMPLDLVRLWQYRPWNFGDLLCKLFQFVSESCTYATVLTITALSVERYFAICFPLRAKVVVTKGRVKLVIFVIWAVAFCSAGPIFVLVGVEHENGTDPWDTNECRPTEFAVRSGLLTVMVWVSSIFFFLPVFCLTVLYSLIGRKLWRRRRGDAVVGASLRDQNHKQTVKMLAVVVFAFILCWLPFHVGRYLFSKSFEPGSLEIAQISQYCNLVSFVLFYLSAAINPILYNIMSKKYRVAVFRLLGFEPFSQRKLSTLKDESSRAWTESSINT

Compound	Ki [nM]
O=CN[C@@H](Cc1c[nH]c2ccccc12)NC(=O)[C@@H](Cc1csc2ccccc12)NC(=O)C1CCNCC1 [#18]	120
CC(C)(N)C(=O)N[C@H](Cc1c[nH]c2ccccc12)C(=O)N[C@H](Cc1csc2ccccc12)NC=O [#5]	279
CC(C)(N)C(=O)N[C@H](Cc1cccc2ccccc12)C(=O)N[C@H](Cc1csc2ccccc12)NC=O [#6]	100
CC(C)(N)C(=O)N[C@H](Cc1csc2ccccc12)C(=O)N[C@H](Cc1cccc2ccccc12)NC=O [#2]	236
CC(C)(N)C(=O)N[C@H](Cc1csc2ccccc12)C(=O)N[C@@H](Cc1c[nH]c2ccccc12)OC(=O)C(F)(F)F [#73]	93
CC(C)(N)C(=O)N[C@H](Cc1ccc2ccccc2c1)C(=O)N[C@H](Cc1csc2ccccc12)NC=O [#7]	226
O=CN[C@@H](Cc1ccc2ccccc2c1)NC(=O)[C@@H](Cc1csc2ccccc12)NC(=O)C1CCNCC1 [#20]	133

The remaining lines, values ahead:

Ki [nM]	Compound
65.1	CC(C)(C)C(=O)N[C@@H](Cc1c[nH]c2ccccc12)NC(=O)[C@@H](Cc1csc2ccccc12)NC(=O)C(C)(C)N [#52]
38.2	CC(=O)N[C@@H](Cc1c[nH]c2ccccc12)NC(=O)[C@@H](Cc1csc2ccccc12)NC(=O)C(C)(C)N [#11, Aib-D-Bal-DgTrp-C(O)CH3]
15	CC(C)(N)C(=O)N[C@H](Cc1csc2ccccc12)C(=O)N[C@H](Cc1c[nH]c2ccccc12)NC=O [#1, Aib-D-Bal-DgTrp-CHO]
92.1	CC(C)(N)C(=O)N[C@H](Cc1csc2ccccc12)C(=O)N[C@H](Cc1csc2ccccc12)NC=O [#4]
61.5	CCC(=O)N[C@@H](Cc1c[nH]c2ccccc12)NC(=O)[C@@H](Cc1csc2ccccc12)NC(=O)C(C)(C)N [#50]
16.8	CC(C)(N)C(=O)N[C@H](Cc1cccc2ccccc12)C(=O)N[C@H](Cc1c[nH]c2ccccc12)NC=O [#65]
20.2	CC(C)C(=O)N[C@@H](Cc1c[nH]c2ccccc12)NC(=O)[C@@H](Cc1csc2ccccc12)NC(=O)C(C)(C)N [#51]
2.56	CC(=O)N[C@H](Cc1c[nH]c2ccccc12)NC(=O)[C@@H](Cc1csc2ccccc12)NC(=O)C(C)(C)N [#12]
